According to patent US7029870B1 (priority 1997, dated 2006):

What was measured:
α/β/ε GABAA receptors = experiment: Benzodiazepine radioligand binding to membranes of cells transfected with α-, β- and ε-subunits; parameters: species or system human, rat; settings: radioligand 1–50 nM
α2/β1/ε GABAA receptors [1] = biological target: T1, α2/β1/ε GABAA receptors (Homo sapiens, UniProt P18505+P47869+P78334, S102A); type: cell-based; parameters: The ε-subunit open reading frame was amplified from a hippocampal cDNA library; expressed in transfected cells; host or cells: HEK-293 (transient, calcium phosphate); settings: for Block of GABA-evoked currents: inhibitor 10 μM, bath applied
T1 sequence (P47869 29-451): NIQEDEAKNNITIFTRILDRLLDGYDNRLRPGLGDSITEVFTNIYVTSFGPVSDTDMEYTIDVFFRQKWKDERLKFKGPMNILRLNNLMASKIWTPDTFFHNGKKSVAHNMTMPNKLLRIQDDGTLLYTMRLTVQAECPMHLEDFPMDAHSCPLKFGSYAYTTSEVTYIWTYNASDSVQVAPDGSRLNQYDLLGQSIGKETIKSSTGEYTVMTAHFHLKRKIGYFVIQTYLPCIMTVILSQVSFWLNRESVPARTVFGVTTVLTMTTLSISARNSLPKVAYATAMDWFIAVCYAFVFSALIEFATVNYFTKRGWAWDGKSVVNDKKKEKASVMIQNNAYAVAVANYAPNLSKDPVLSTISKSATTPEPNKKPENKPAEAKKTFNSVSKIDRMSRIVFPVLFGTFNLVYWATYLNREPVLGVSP
T1 sequence (P18505 26-474): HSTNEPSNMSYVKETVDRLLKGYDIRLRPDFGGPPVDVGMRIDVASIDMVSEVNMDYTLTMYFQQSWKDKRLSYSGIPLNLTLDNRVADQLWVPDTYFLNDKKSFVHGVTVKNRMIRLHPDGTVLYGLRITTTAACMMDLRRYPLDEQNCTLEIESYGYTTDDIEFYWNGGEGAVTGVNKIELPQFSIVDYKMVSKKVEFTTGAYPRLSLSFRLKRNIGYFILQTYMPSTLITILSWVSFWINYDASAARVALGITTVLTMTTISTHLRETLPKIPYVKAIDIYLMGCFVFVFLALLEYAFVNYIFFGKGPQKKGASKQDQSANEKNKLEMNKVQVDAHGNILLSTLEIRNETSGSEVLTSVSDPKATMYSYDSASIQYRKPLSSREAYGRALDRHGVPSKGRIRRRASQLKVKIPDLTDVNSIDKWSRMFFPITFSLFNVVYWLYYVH
T1 sequence (P78334 23-506 S102A): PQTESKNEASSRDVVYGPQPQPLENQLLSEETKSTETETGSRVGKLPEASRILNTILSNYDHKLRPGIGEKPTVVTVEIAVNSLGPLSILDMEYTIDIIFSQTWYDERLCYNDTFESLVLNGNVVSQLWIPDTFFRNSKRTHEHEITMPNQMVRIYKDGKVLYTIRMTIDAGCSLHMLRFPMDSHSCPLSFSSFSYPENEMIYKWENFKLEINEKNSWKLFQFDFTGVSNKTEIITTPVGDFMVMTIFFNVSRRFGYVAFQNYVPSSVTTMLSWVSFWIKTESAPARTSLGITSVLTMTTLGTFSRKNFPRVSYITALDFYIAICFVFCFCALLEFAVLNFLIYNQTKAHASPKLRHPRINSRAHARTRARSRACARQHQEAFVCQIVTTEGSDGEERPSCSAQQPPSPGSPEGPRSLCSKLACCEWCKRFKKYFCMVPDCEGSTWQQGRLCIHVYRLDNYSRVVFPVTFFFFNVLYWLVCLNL

α1/β3/ε GABAA receptors = biological target: T2, α1/β3/ε GABAA receptors (UniProt P28472+P62813+P78334, S102A); parameters: species or system rat α1, human β3, human ε; settings: α1/β3/ε subunits; read-out: Maximal stimulation of [3H]muscimol binding to cell membranes
T2 construct: The ε-subunit open reading frame was amplified from a hippocampal cDNA library; expressed in transfected cells; host or cells: HEK-293 (transient, calcium phosphate); membranes prepared from the transfected cells

[2] = tested on: α/β/ε GABAA receptors (α2/β1/ε or α1/β3/ε)
α2/β1/ε GABAA receptors [3] = biological target: T1, α2/β1/ε GABAA receptors; settings: α2/β1/ε subunits

CN1C(=O)CN=C(c2ccccc2F)c2cc([N+](=O)[O-])ccc21 [[^3H]flunitrazepam, flunitrazepam]
Binding to transfected cell membranes (α/β/ε GABAA receptors): did not bind

CN1CCc2cc3c(cc2[C@H]1[C@@H]1OC(=O)c2c1ccc1c2OCO1)OCO3 [bicuculline]
Block of GABA-evoked currents (α2/β1/ε GABAA receptors [1]; α2/β1/ε): 73.6±9.3%

CCOC(=O)c1ncn2c1CN(C)C(=O)c1cc(F)ccc1-2 [[^3H]flumazenil, flumazenil]
Binding to transfected cell membranes (α/β/ε GABAA receptors): did not bind

picrotoxin
Block of GABA-evoked currents (α2/β1/ε GABAA receptors [1]; α2/β1/ε): 82.5±7.4%

CCCC(C)C1(CC)C(=O)NC(=O)NC1=O (stereo not drawn) [pentobarbital]
Emax (α1/β3/ε GABAA receptors): < 15% | Enhancement of GABA-evoked currents [2]: blocked the ability

NCCCC(=O)O [GABA, γ-aminobutyric acid]
Reversal potential of GABA-evoked currents (α2/β1/ε GABAA receptors [1]; 100 μM GABA, α2/β1/ε, linear fit): 5.7 mV | Hill slope of GABA concentration-response (α2/β1/ε GABAA receptors [1]; α2/β1/ε cDNAs): 1.1

5α-pregnan-3α-ol-20-one [pregnanolone]
Effect on submaximal GABA-activated currents (α2/β1/ε GABAA receptors [1]; concentrations up to 100 nM, α2/β1/ε): No significant effects | Potentiation of submaximal GABA-activated currents (α2/β1/ε GABAA receptors [1]; high concentrations of the steroid, α2/β1/ε): up to 73% | Effect on [35S]TBPS binding (α2/β1/ε GABAA receptors [3]): no stimulatory phase

CC(C)c1cccc(C(C)C)c1O [propofol, 2,6-diisopropylphenol]
Enhancement of GABA-evoked currents [2]: blocked the ability
